In patent publication US20180147189A1, “ADMINISTRATION REGIMEN FOR THERAPEUTIC AGENTS FOR ATAXIA IN SPINOCEREBELLAR DEGENERATION” (KISSEI PHARMACEUTICAL CO., LTD., priority 2015, published 2018):

Legend:
[1] = Pharmacokinetic study in humans, single dose on an empty stomach; type: in vivo, human; settings: single dose 0.1-10 mg, healthy adult males
Description: Rovatirelin trihydrate (0.1, 0.3, 1, 2.5, 5 or 10 mg) or placebo was administered to 48 healthy adult males (6 individuals per group and 12 on placebo) as a single dose on an empty stomach. Analysis of the pharmacokinetics of intact rovatirelin under this condition indicated linearity of Cmax (maximum plasma concentration), AUC0-∞ (area under the plasma concentration curve vs. time curve from time 0 to infinity), and Ae0-48 (cumulative amount excreted into urine from time 0-48 hours) of rovatirelin in a dosage range from 0.1-10 mg.

[2] = system: animal models; settings: PTL 2; cited from earlier work
[3] = PTL 2; cited from earlier work
[4] = system: ataxia in SCD; settings: NPL 3, cited from earlier work
[5] = system: pure cerebellar SCD patients; assay: Long-term extension study of pure cerebellar SCD patients; type: in vivo, human; settings: 2.4 mg once daily, at 52 weeks
Description: For patients who completed the phase III study (Example 4), rovatirelin trihydrate was administered at 1.6 or 2.4 mg once daily for 52 weeks (open-label parallel-group comparative study).
The same items as those listed in Example 4 were used as efficacy and safety endpoints, and deterioration rates (i.e., the number of deteriorated patients/total number of patients) in the SARA total score and SARA scores for each items were calculated in a similar manner.

[6] = system: SCD patients; assay: Study of switch from conventional drugs to rovatirelin in SCD patients; type: in vivo, human; settings: switch group from taltirelin, 24 weeks, P<0.01
Description: To the patients were orally administered rovatirelin trihydrate at 1.6 or 2.4 mg once daily after breakfast for 24 weeks (randomized, open-label parallel-group comparative study).
A 4-week pre-observation period was set prior to the start of the treatment period. For patients who received a conventional SCD agent taltirelin or protirelin agent (TRH agent) before the pre-observation period, the medication was continued until the end of the pre-observation period without changing its dosage and administration.
The same items as those listed in Example 4 were used as efficacy and safety endpoints.

[7] = system: patients with pure cerebellar SCD; assay: Clinical trial of pure cerebellar SCD patients (Phase III study); type: in vivo, human
Description: Rovatirelin trihydrate at a dose of 1.6 or 2.4 mg or placebo was orally administered to patients with pure cerebellar SCD (SCA6, SCA31 or cortical cerebellar atrophy (CCA)) with ataxia once daily after breakfast for 28 weeks (double-blind; 124 patients in the 1.6 mg group, 122 patients in the 2.4 mg group, and 123 patients in the placebo group).
To appropriately assess the efficacy of rovatirelin trihydrate on ataxia, this study was performed on pure cerebellar SCD patients with a SARA gait score between 2 and 6 and a SARA total score of ≥6.
The same items as those listed in Example 3 were used as efficacy and safety endpoints. SCD is a disease that automatically becomes worse; therefore it is important in the treatment to retard the deterioration. Accordingly, patients with a […] in their SARA score compared with the time in week 0 were defined as deteriorated patients, and deterioration rates (i.e., the number of deteriorated patients/total number of patients) in the SARA total score and SARA scores for each item were calculated.

[8] = Repeated dose study in healthy adult males; type: in vivo, human; settings: for transition of FT3 value (serum concentration, mean) / transition of FT4 values (serum concentration, mean): oral, 9 days
Description: To 50 healthy adult males (8 individuals per group and 10 on placebo), rovatirelin trihydrate (0.25, 0.5 or 1.0 mg) or placebo was orally administered once daily or rovatirelin trihydrate (0.25 or 0.5 mg) or placebo was orally administered twice daily after breakfast and after dinner, for 9 consecutive days.
Serum concentrations (mean) of FT3, FT4, TSH, and prolactin (PRL), and adverse events and the like were evaluated.

[9] = system: SCD patients; assay: Clinical trial of SCD patients (Phase II study); type: in vivo, human; settings: for amount of change in the SARA total score: 24 weeks, pure cerebellar SCD patients, mean
Description: Rovatirelin trihydrate (0.4, 0.8, 1.6 or 3.2 mg) or placebo was orally administered to 225 SCD patients once daily after breakfast for 24 weeks (double-blind).
The efficacy endpoint was the amount of change in the SARA total score calculated by, as an example, the SARA total score at the final assessment in the treatment period (the final observed value in the treatment period) minus that at the end of the pre-observation period as an example. The safety endpoints were, as an example, the occurrence of adverse events and side effects, physiological examinations (e.g., blood pressure and pulses), and endocrinologic examinations (e.g., FT3 and FT4).
It is noted that the SARA total score was calculated by a sum of the SARA scores for each item ((i.e., gait (score 0-8), stance (score 0-6), sitting (score 0-4), speech disturbance (score 0-6), finger chase (score 0-4), nose-finger test (score 0-4), fast alternating hand movements (score 0-4), and heel-shin slide (score 0-4) (the score 0 is normal for all items)).

[10] = 2.4 mg group, elderly aged ≥65 years
[11] = 0.5 mg once daily (0.5 mg/qd) compared with 0.25 mg twice daily
[12] = 1 mg once daily (1 mg/qd) compared with 0.5 mg twice daily

C[C@@H]1OC(=O)N[C@@H]1C(=O)N[C@@H](Cc1cscn1)C(=O)N1CCC[C@H]1C [rovatirelin, (4S,5S)-5-methyl-N-{(2S)-1-[(2R)-2-methylpyrrolidin-1-yl]-1-oxo-3-(1,3-thiazol-4-yl)propan-2-yl}-2-oxo-1,3-oxazolidine-4-carboxamide]
dose proportionality of AUC0-∞ [1]: linearity | dose proportionality of Ae0-48 (cumulative amount excreted into urine 0-48 hours) [1]: linearity | dose proportionality of Cmax (maximum plasma concentration) [1]: linearity | effects in improving ataxia relative to taltirelin [2]: at least 30 times | bioavailability (BA) [3]: high

CN1C(=O)C[C@@H](C(=O)N[C@@H](Cc2cnc[nH]2)C(=O)N2CCC[C@H]2C(N)=O)NC1=O.O.O.O.O [Taltirelin hydrate]
total improvement level (subjective assessment of a physician) versus placebo ([4]; after 28 weeks, ataxia in SCD): significant difference | individual symptoms (symptom of ataxia) ([4]; phase III double-blind comparative study): no significant improvement was observed

C[C@@H]1OC(=O)N[C@@H]1C(=O)N[C@@H](Cc1cscn1)C(=O)N1CCC[C@H]1C [rovatirelin trihydrate]
deterioration rate for items (gait) [5]: 9.9% | deterioration rate of the SARA total score [5]: 21.0% | amount of change in the SARA total score ([5]; 81 patients who completed): −1.41 | amount of change in the SARA total score at an endpoint ([6]; 1.6 mg once daily): −1.34 | amount of change in the SARA total score at an endpoint ([6]; 2.4 mg once daily): −1.35 | FT3 and FT4 concentrations versus normal range ([7]; 1.6 mg and 2.4 mg groups, 4 weeks after the start of administration, no further increase subsequently): reached the upper limit of the normal range | SARA gait and stance scores compared with the placebo group ([7]; 1.6 mg group): no improvement was observed | SARA total score compared with the placebo group ([7]; 1.6 mg group): no improvement was observed | discontinuation rate ([7]; 1.6 mg group (placebo 4.9%)): 16.0% | amount of change in the SARA total score ([7]; 1.6 mg once daily, 28 weeks, compared with pre-dose score): −0.75 | discontinuation rate ([7]; 2.4 mg group (placebo 4.9%)): 19.8% | deterioration rate of the SARA total score ([7]; 2.4 mg group (placebo 30.9%)): 23.8% | amount of change in the SARA gait score [7, 10]: −0.19 | amount of change in the SARA stance score [7, 10]: −0.54 | amount of change in the SARA total score [7, 10]: −1.39 | amount of change in the SARA total score ([7]; 2.4 mg once daily, 28 weeks, compared with pre-dose score): −1.22 | transition of FT3 value (serum concentration, mean) [8, 11]: proceeded at lower levels as a whole | transition of FT4 values (serum concentration, mean) [8, 11]: comparable for both groups or the transition for the 0.5 mg/qd group proceeded at slightly lower levels | FT4 concentrations versus reference limit ([8]; 0.5 mg twice daily, Day 5 and Day 9, reference limits 0.9 and 1.7 ng/dL): above the reference limit | transition of FT3 value (serum concentration, mean) [8, 12]: proceeded at lower levels as a whole | transition of FT4 values (serum concentration, mean) [8, 12]: proceeded at lower levels as a whole | amount of change in the SARA total score ([9]; 0.4 mg once daily): −1.09 score | amount of change in the SARA total score ([9]; 0.8 mg once daily): −1.27 score | discontinuation rate ([9]; 1.6 mg group (placebo 15.6%)): 17.8% | amount of change in the SARA total score ([9]; 1.6 mg once daily): −1.58 score | discontinuation rate ([9]; 3.2 mg group (placebo 15.6%)): 28.9% | FT3 and FT4 concentrations versus upper reference limits ([9]; 3.2 mg once daily): slightly above the upper reference limits | amount of change in the SARA total score ([9]; 3.2 mg once daily): −1.65 score | side effect rate compared with placebo (Fisher's exact test) ([9]; 3.2 mg once daily, P=0.002): significantly differed
